Earlier results as cited in patent US20220351806A1, “Biomarker Panels for Guiding Dysregulated Host Response Therapy” (Endpoint Health Inc., priority 2019, published 2022).

Legend:
[1] = test system: shock events induced by endotoxin; settings: rats, preventive administration, injected endotoxin; cited from earlier work
[2] = test system: acid-induced lung injury; settings: rats, cited from earlier work
[3] = test system: oncologic and lymphopenic patients; settings: over 390 oncologic and lymphopenic patients; cited from earlier work
[4] = test system: septic animals; settings: exogenous TFPI expressed in mammalian cells and/or Escherichia coli; cited from earlier work

Question: For CC1C(=O)OC2C(O)C34C5CC(C(C)(C)C)C36C(OC(=O)C6O)OC4(C(=O)O5)C12O (stereo not drawn) [BN 52021], which “release of thromboxane and prostaglandin factor 1-α (PGF1-α)” value [1] is on record?
Answer: reduced.

Question: With CCOC(=O)[C@H](Cc1ccccc1)NC(=O)c1cc(Cl)c(OCCN2CCN(C)CC2)c(Cl)c1O.Cl.Cl [JTE 607] as the compound, how does the “production of inflammatory cytokines (tumor necrosis factor-alpha, interleukin-6, cytokine-induced neutrophil chemoattractant)” value ([2]; acid-induced lung injury) read?
Answer: inhibit the production

Question: What about the acid-induced lung injury [2] of the same compound?
Answer: attenuate acid-

Question: Which immunity [3] does the source give for CYT-107 here?
Answer: counts, and improved

Question: And the safety [3]?
Answer: safe, invariably

Question: For tifacogin, which “outcome in septic animals” value [4] is on record?
Answer: coli improved
